Key:
[1] = biological target: SCTR (secretin receptor) (Homo sapiens, UniProt P47872); assay: cAMP accumulation assay, agonist mode; type: cell-based; conditions: CHO-K1, read-out: Emax in cAMP accumulation assays
[2] = biological target: SCTR-SmBiT (UniProt P47872 23-440); assay: cell-based or functional assay
Chain of SCTR-SmBiT (P47872 23-440): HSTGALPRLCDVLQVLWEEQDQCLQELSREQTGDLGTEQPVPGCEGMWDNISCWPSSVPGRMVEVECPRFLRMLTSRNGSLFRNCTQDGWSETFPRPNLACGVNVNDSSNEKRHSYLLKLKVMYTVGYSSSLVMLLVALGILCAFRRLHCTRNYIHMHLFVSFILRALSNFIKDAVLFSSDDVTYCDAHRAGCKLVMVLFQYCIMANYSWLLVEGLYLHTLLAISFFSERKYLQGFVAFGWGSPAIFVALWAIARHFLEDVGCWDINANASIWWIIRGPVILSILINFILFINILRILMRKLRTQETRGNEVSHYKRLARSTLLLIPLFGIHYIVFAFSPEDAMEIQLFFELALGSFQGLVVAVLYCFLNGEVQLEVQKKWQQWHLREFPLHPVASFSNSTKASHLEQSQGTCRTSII

Chain of SCTR (secretin receptor) (P47872 23-440): as above

Row | Emax [1] | β-arrestin-2 recruitment (NanoBiT, SCTR-SmBiT with LgBiT-ARRB2), EC50 [2] | Molecule
1 | 30% |  | CC(C)C[C@H](NC(=O)CNC(=O)[C@H](CCC(N)=O)NC(=O)[C@H](CC(C)C)NC(=O)[C@H](CC(C)C)NC(=O)[C@H](CCCNC(=N)N)NC(=O)[C@H](CCC(N)=O)NC(=O)[C@H](CC(C)C)NC(=O)[C@H](CCCNC(=N)N)NC(=O)[C@H](C)NC(=O)CNC(=O)[C@H](CCC(=O)O)NC(=O)[C@H](CCCNC(=N)N)NC(=O)[C@H](CC(C)C)NC(=O)[C@H](CCCNC(=N)N)NC(=O)[C@H](CO)NC(=O)[C@H](CC(C)C)NC(=O)[C@H](CCC(=O)O)NC(=O)[C@H](CO)NC(=O)[C@@H](NC(=O)[C@H](Cc1ccccc1)NC(=O)[C@@H](NC(=O)CNC(=O)[C@@H](N)CC(=O)O)[C@@H](C)O)[C@@H](C)O)C(=O)N[C@H](C(N)=O)C(C)C [Sec(3–27)]
2 |  | 1.3 µM | HSDGTFTSELSRLREGARLQRLL [Sec(1–23)]

Source: paper PMC8278649 (SLAS discovery : advancing life sciences R & D, 2020)
